From US6677460B1, “Aromatic carboxylic acid bicyclic sulfur compounds” (Idemitsu Kosan Company, Limited, priority 1993, dated 2004)

Assays:
barnyard grass [1] = test: Submergence soil treatment test (4); assay type: in vivo; conditions: twenty days after treatment; also: ranges in brackets are in %
Description: (§1) 90 Parts by weight of the above carrier and 10 parts by weight of each of Compounds obtained in the above Preparation Examples were uniformly pulverized and mixed to obtain herbicides. Further, for Herbicide Comparative Examples, comparative herbicides were prepared by uniformly pulverizing and mixing 90 parts by weight of the above carrier and 10 parts by weight of each of the following Compounds x, y, A, B and C.
(§2) (4) Biological Test (Submergence Soil Treatment Test, Herbicide Examples 5˜9 and Comparative Examples 5˜8 and Reference Example 1 and 2)
(§3) 1/15,500-are porcelain pots were filled with paddy field soil, and seeds of barnyard grass and umbrella plant were sown in a surface layer of the soil, and paddy rice at the 2-leaf stage was transplanted. Then, the weeds were treated by uniformly spraying a diluted solution of a predetermined amount of the herbicide prepared in the above (1) onto the water surface at the time of germination of the weeds, and then the pots were allowed to stand in a greenhouse while water was properly sprayed. […] The dosage of each herbicide is shown as an amount of the active ingredient per 10 areas. Further, air-dried weights were measured, and the herbicidal efficacy and the phytotoxicity to the paddy rice were shown as follows.

umbrella plant = test: Submergence soil treatment test (4); assay type: in vivo; conditions: twenty days after treatment; also: ranges in brackets are in %
Description: as §1, §2, §3

paddy rice = test: Submergence soil treatment test (4), phytotoxicity; assay type: in vivo; conditions: twenty days after treatment
Description: as §1, §2, §3

corn = test: Upland soil treatment test (5), phytotoxicity; assay type: in vivo; conditions: dosage 100 g a.i./hectare, 20th day after treatment
Description: as §1
(§4) (5) Biological Test (Upland Soil Treatment Test, Herbicide Examples 10-26 and Comparative Example 9)
(§5) Seeds of weeds such as large crabgrass, barnyard grass, green foxtail, cocklebur, velvetleaf and slender amaranth and seeds of corn, wheat and barley were sown in 1/5,000-are Wagner pots filled with upland soil, and covered with upland soil. Then, a predetermined amount of the herbicide prepared in the above (1) was suspended in water and uniformly sprayed onto the soil surface. Thereafter, the plants were grown in the greenhouse, and on 20th day after the treatment, the herbicide was evaluated for herbicidal efficacy.
(§6) The dosage of each herbicide is indicated as an amount of the active ingredient per hectare. Further, air-dried weight were measured, and herbicidal efficacy and the pytotoxicity to corn are shown on the basis of the ratings described below.

green foxtail = test: Upland soil treatment test (5); assay type: in vivo; conditions: dosage 100 g a.i./hectare, 20th day after treatment; also: ranges in brackets are in %
Description: as §1, §4, §5, §6

cocklebur = test: Upland soil treatment test (5); assay type: in vivo; conditions: dosage 100 g a.i./hectare, 20th day after treatment; also: ranges in brackets are in %
Description: as §1, §4, §5, §6

slender amaranth = test: Upland soil treatment test (5); assay type: in vivo; conditions: dosage 100 g a.i./hectare, 20th day after treatment; also: ranges in brackets are in %
Description: as §1, §4, §5, §6

barnyard grass [2] = test: Upland soil treatment test (5); assay type: in vivo; conditions: dosage 100 g a.i./hectare, 20th day after treatment; also: ranges in brackets are in %
Description: as §1, §4, §5, §6

velvetleaf = test: Upland soil treatment test (5); assay type: in vivo; conditions: dosage 100 g a.i./hectare, 20th day after treatment; also: ranges in brackets are in %
Description: as §1, §4, §5, §6

large crabgrass = test: Upland soil treatment test (5); assay type: in vivo; conditions: dosage 100 g a.i./hectare, 20th day after treatment; also: ranges in brackets are in %
Description: as §1, §4, §5, §6

Structure (SMILES) | Herbicidal Effficacy barnyard grass (barnyard grass [1]; dosage 3 g a.i./10 are) | Herbicidal Effficacy barnyard grass (barnyard grass [1]; dosage 10 g a.i./10 are) | Herbicidal Effficacy umbrella plant (umbrella plant; dosage 3 g a.i./10 are) | Herbicidal Effficacy umbrella plant (umbrella plant; dosage 10 g a.i./10 are) | Phytotoxicity to paddy rice (paddy rice; dosage 3 g a.i./10 are) | Phytotoxicity to paddy rice (paddy rice; dosage 10 g a.i./10 are) | melting point [°C] | Phyto-toxicity to corn (corn) | Herbicidal Efficacy green foxtail (green foxtail) | Herbicidal Efficacy cocklebur (cocklebur) | Herbicidal Efficacy slender amaranth (slender amaranth) | Herbicidal Efficacy barnyard grass (barnyard grass [2]) | Herbicidal Efficacy velvetleaf (velvetleaf) | Herbicidal Efficacy large crabgrass (large crabgrass) | Herbicidal Effficacy barnyard grass (barnyard grass [1]; dosage 1 g a.i./10 are) | Herbicidal Effficacy umbrella plant (umbrella plant; dosage 1 g a.i./10 are) | Phytotoxicity to paddy rice (paddy rice; dosage 1 g a.i./10 are)
CCn1ncc(C(=O)c2cc(C)c3c(c2C)C(=NOC)CCS3(=O)=O)c1O [Comp'd C, reference compound] | 0 (81-100) | 4 (1-20) | 3 (21-40) | 5 (0) | 2 (90-94) | 5 |  |  |  |  |  |  |  |  |  |  | 
CCn1ncc(C(=O)c2cc(Cl)c3c(c2Cl)C(C)(C)CCS3)c1O [Compound 3] |  |  |  |  |  |  | 263.7 to 263.9 |  |  |  |  |  |  |  |  |  | 
CCn1ncc(C(=O)c2cc(C)c3c(c2C)C(C)(C)CCS3(=O)=O)c1OS(C)(=O)=O [Compound 7, 4,4,5,8-tetramethyl-6-(1-ethyl-5-methanesulfonyloxypyrazol-4-yl)carbonylthiochroman-1,1-dioxide] |  |  |  |  |  |  | 202.2 to 203.4 | 0 (100) | 4 (1-20) | 5 (0) | 5 (0) | 5 (0) | 5 (0) | 5 (0) |  |  | 
CCn1ncc(C(=O)c2cc(C)c3c(c2C)C(C)(C)CCS3)c1OS(=O)(=O)CC [Compound 8] |  |  |  |  |  |  | 164.1 to 165.7 | 0 (100) | 4 (1-20) | 5 (0) |  | 4 (1-20) | 5 (0) | 5 (0) |  |  | 
CCCS(=O)(=O)Oc1c(C(=O)c2cc(C)c3c(c2C)C(C)(C)CCS3(=O)=O)cnn1CC [Compound 9] |  |  |  |  |  |  |  | 0 (100) | 5 (0) | 5 (0) | 5 (0) | 5 (0) | 5 (0) | 5 (0) |  |  | 
CCCCS(=O)(=O)Oc1c(C(=O)c2cc(C)c3c(c2C)C(C)(C)CCS3(=O)=O)cnn1CC [Compound 10] |  |  |  |  |  |  |  | 0 (100) | 2 (41-60) | 3 (21-40) | 5 (0) | 5 (0) | 5 (0) | 5 (0) | 5 (0) | 5 (0) | 0 (100)
CCCCCCCCS(=O)(=O)Oc1c(C(=O)c2cc(C)c3c(c2C)C(C)(C)CCS3(=O)=O)cnn1CC [Compound 11] |  |  |  |  |  |  |  | 0 (100) | 2 (41-60) | 3 (21-40) | 1 (61-80) | 3 (21-40) | 5 (0) | 5 (0) | 5 (0) | 5 (0) | 0 (100)
CCn1ncc(C(=O)c2cc(C)c3c(c2C)C(C)(C)CCS3(=O)=O)c1OS(=O)(=O)c1ccc(C)cc1 [Compound 12] |  |  |  |  |  |  |  | 0 (100) | 1 (61-80) |  | 5 (0) | 5 (0) | 5 (0) | 5 (0) |  |  | 
CCn1ncc(C(=O)c2cc(C)c3c(c2C)C(C)(C)CCS3(=O)=O)c1OS(=O)(=O)c1ccc([N+](=O)[O-])cc1 [Compound 13] |  |  |  |  |  |  |  | 0 (100) | 2 (41-60) | 5 (0) | 2 (41-60) | 3 (21-40) | 5 (0) | 5 (0) |  |  | 
CCn1ncc(C(=O)c2cc(C)c3c(c2C)C(C)(C)CCS3(=O)=O)c1OS(=O)(=O)c1ccc(OC)cc1 [Compound 14] |  |  |  |  |  |  |  | 0 (100) | 2 (41-60) | 5 (0) | 5 (0) | 5 (0) | 5 (0) | 5 (0) | 5 (0) | 3 (21-40) | 0 (100)
CCn1ncc(C(=O)c2cc(C)c3c(c2C)C(C)(C)CCS3(=O)=O)c1OS(=O)(=O)c1ccccc1C [Compound 16] | 5 (0) |  | 5 (0) |  | 0 (100) |  |  | 0 (100) | 5 (0) | 5 (0) | 5 (0) | 5 (0) | 5 (0) | 5 (0) | 5 (0) | 2 (41-60) | 0 (100)
CCn1ncc(C(=O)c2cc(C)c3c(c2C)C(C)(C)CCS3(=O)=O)c1OC(C)=O [Compound 18, 4,4,5,8-tetramethyl-6-(1-ethyl-5-acetoxypyrazol-4-yl)carbonylthiochroman-1,1-dioxide] |  |  |  |  |  |  | 187.7 to 191.4 | 0 (100) | 4 (1-20) | 5 (0) | 5 (0) | 5 (0) | 5 (0) | 5 (0) |  |  | 
CCC(=O)Oc1c(C(=O)c2cc(C)c3c(c2C)C(C)(C)CCS3)cnn1CC [Compound 19] |  |  |  |  |  |  | 178 to 179.6 | 0 (100) | 2 (41-60) | 5 (0) | 5 (0) | 5 (0) | 5 (0) | 5 (0) |  |  | 
CCCCC(=O)Oc1c(C(=O)c2cc(C)c3c(c2C)C(C)(C)CCS3(=O)=O)cnn1CC [Compound 20] |  |  |  |  |  |  |  | 0 (100) | 2 (41-60) | 5 (0) |  | 3 (21-40) | 5 (0) | 5 (0) |  |  | 
CCCCCCC(=O)Oc1c(C(=O)c2cc(C)c3c(c2C)C(C)(C)CCS3(=O)=O)cnn1CC [Compound 21] |  |  |  |  |  |  |  | 0 (100) | 4 (1-20) | 5 (0) | 5 (0) | 5 (0) | 5 (0) | 5 (0) |  |  | 
CCn1ncc(C(=O)c2cc(C)c3c(c2C)C(C)(C)CCS3)c1OC(=O)c1ccc(Cl)cc1Cl [Compound 23] |  |  |  |  |  |  | 165.2 to 169 |  |  |  |  |  |  |  |  |  | 
CCn1ncc(C(=O)c2cc(C)c3c(c2C)C(C)(C)CCS3)c1OCC(C)=O [Compound 24] |  |  |  |  |  |  |  | 0 (100) | 2 (41-60) | 5 (0) | 5 (0) | 5 (0) | 5 (0) | 5 (0) |  |  | 
CCn1ncc(C(=O)c2cc(C)c3c(c2C)C(C)(C)CCS3(=O)=O)c1OCC(=O)c1ccccc1 [Compound 25] |  |  |  |  |  |  |  | 0 (100) | 2 (41-60) | 5 (0) | 5 (0) | 2 (41-60) | 5 (0) | 5 (0) |  |  | 
